Results taken from the kinase profiling compilation of Christmann-Franck et al. (2016).

Experiments:
Assay in all cases: radiometric filter-binding kinase assay
ROCK2 (rat) = conditions: accession and sequence are those of the human protein
HIPK3 (human) = HIPK3 (human) (UniProt Q9H422)
MAPK14 (human) = MAPK14 (human) (UniProt Q16539)
PAK6 (human) = PAK6 (human) (UniProt Q9NQU5)
EEF2K (human) = EEF2K (human) (UniProt O00418)
DYRK1A (human) = DYRK1A (human) (UniProt Q13627)
MAPKAPK5 (human) = MAPKAPK5 (human) (UniProt Q8IW41)
DYRK3 (human) = DYRK3 (human) (UniProt O43781)
RPS6KA5 KD1 KD2 (human) = RPS6KA5 KD1 KD2 (human) (UniProt O75582)
Sequence of RPS6KA5 KD1 KD2 (human) (O75582 whole entry, looked up): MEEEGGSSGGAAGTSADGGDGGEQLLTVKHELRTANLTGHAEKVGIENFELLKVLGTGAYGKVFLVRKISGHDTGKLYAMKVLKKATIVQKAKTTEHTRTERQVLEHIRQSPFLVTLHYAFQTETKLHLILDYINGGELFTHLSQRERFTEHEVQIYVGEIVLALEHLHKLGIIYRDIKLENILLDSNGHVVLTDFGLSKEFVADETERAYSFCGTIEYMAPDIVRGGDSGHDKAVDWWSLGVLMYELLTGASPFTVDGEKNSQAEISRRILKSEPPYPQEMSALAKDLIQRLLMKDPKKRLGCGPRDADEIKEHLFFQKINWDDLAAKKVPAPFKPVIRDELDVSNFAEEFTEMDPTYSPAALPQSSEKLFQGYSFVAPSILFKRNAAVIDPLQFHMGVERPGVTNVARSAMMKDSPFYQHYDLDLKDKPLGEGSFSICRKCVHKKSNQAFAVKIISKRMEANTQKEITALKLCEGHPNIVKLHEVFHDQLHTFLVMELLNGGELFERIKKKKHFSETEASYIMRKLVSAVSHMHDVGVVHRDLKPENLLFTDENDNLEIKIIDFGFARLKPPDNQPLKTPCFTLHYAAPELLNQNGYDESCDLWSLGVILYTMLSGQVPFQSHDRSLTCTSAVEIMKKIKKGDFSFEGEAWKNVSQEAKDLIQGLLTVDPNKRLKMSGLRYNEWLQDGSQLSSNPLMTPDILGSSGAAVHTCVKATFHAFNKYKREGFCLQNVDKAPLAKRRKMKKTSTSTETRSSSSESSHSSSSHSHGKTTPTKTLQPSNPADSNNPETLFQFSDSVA

MARK3 (human) = MARK3 (human) (UniProt P27448)
MAPK13 (human) = MAPK13 (human) (UniProt O15264)
DYRK2 (human) = DYRK2 (human) (UniProt Q92630)
Sequence of DYRK2 (human) (Q92630 whole entry, looked up): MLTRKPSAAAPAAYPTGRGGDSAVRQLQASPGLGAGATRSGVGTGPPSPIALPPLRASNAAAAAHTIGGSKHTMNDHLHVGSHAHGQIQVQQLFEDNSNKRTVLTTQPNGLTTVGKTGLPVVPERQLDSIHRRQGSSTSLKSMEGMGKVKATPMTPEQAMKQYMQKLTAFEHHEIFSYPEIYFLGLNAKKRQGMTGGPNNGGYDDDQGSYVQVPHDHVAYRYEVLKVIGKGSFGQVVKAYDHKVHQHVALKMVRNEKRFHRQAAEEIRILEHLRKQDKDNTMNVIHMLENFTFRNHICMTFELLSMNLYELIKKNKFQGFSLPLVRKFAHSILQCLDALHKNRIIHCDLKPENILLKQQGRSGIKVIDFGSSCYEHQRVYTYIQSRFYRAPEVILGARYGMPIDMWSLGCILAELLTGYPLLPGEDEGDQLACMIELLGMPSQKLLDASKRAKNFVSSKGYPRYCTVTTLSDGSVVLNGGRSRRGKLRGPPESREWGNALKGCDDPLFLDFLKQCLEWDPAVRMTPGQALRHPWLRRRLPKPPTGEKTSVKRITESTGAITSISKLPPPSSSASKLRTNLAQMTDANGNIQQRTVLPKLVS

NEK6 (human) = NEK6 (human) (UniProt Q9HC98)
Sequence of NEK6 (human) (Q9HC98 whole entry, looked up): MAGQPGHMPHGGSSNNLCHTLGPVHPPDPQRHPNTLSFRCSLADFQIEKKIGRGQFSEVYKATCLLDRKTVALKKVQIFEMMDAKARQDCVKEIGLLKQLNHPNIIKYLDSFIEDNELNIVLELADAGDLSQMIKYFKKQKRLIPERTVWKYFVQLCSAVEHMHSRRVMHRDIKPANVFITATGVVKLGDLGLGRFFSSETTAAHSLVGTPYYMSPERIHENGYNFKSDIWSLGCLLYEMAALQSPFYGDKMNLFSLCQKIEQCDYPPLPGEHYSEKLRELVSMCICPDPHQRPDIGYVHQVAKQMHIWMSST

LCK (mouse) = conditions: accession and sequence are those of the human protein
HIPK2 (human) = HIPK2 (human) (UniProt Q9H2X6)
[1] = test system: AKT1 (human), P31749 [S473D]
PAK4 (human) = PAK4 (human) (UniProt O96013)
CSNK2A1 (human) = CSNK2A1 (human) (UniProt P68400)
Sequence of CSNK2A1 (human) (P68400 whole entry, looked up): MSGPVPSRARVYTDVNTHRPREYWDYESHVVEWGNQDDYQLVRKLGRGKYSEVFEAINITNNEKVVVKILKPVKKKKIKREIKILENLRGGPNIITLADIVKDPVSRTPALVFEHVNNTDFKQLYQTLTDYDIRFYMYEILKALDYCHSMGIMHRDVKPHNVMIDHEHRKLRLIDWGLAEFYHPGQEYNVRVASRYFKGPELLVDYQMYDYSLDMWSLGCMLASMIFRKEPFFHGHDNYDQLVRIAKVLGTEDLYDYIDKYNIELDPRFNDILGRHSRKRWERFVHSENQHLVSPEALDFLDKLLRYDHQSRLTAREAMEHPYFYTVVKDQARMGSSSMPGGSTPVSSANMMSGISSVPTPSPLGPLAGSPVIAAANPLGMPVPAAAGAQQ

PRKCZ (human) = PRKCZ (human) (UniProt Q05513)
Sequence of PRKCZ (human) (Q05513 whole entry, looked up): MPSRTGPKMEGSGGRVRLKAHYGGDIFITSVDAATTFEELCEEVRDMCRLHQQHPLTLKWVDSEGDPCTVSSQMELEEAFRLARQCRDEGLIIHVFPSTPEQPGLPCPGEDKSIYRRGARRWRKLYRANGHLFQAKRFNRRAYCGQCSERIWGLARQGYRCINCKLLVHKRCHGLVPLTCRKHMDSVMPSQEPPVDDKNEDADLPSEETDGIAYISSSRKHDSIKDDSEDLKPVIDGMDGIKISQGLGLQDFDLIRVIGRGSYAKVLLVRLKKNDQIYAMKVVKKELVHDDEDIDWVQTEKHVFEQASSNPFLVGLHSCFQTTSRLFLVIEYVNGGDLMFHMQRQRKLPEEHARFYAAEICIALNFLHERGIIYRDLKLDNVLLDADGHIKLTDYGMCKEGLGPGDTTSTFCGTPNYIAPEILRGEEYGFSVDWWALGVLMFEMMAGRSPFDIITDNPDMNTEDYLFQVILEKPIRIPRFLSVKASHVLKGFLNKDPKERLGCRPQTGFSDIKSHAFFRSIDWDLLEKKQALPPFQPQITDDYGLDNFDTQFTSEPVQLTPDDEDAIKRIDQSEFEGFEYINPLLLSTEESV

PAK7 (human) = PAK7 (human) (UniProt Q9P286)
MAPK11 (human) = MAPK11 (human) (UniProt Q15759)
Sequence of MAPK11 (human) (Q15759 whole entry, looked up): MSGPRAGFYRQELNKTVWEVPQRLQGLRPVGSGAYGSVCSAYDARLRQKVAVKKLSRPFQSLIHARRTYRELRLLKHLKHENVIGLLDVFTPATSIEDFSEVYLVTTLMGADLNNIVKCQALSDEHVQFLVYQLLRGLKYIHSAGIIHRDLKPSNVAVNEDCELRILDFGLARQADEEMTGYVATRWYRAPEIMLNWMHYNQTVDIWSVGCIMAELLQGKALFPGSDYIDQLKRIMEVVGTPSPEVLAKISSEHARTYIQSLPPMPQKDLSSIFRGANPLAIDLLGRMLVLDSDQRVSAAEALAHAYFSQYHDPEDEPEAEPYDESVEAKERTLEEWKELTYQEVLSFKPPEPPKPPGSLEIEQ

CaMK1 (human) = CaMK1 (human) (UniProt Q14012)
Sequence of CaMK1 (human) (Q14012 whole entry, looked up): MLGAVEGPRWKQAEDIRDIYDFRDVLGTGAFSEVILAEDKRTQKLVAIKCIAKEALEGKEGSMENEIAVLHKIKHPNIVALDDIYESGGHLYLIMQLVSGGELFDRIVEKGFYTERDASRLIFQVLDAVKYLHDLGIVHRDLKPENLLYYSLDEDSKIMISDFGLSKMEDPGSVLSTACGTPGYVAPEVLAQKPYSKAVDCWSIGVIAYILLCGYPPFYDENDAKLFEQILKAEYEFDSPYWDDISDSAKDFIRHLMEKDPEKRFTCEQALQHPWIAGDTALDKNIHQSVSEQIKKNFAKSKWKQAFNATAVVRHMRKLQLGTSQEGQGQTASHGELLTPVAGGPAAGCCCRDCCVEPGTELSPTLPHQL

EPHB3 (human) = EPHB3 (human) (UniProt P54753); conditions: compound 1.0 µM
MST4 (human) = MST4 (human) (UniProt Q9P289)
BTK (human) = BTK (human) (UniProt Q06187)
IKBKE (human) = IKBKE (human) (UniProt Q14164)
EPHA2 (human) = EPHA2 (human) (UniProt P29317)

Sequence of MAPK14 (human) (Q16539 whole entry, looked up): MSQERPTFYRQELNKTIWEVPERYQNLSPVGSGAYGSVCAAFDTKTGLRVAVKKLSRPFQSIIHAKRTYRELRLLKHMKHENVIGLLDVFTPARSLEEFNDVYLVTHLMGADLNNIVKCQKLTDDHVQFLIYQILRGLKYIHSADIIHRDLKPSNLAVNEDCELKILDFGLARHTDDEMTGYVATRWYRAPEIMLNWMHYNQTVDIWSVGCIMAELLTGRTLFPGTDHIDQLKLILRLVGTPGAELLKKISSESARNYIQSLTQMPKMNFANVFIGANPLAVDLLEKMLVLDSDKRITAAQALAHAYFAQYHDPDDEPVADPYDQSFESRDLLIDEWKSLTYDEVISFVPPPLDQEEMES
Sequence of HIPK3 (human) (Q9H422 whole entry, looked up): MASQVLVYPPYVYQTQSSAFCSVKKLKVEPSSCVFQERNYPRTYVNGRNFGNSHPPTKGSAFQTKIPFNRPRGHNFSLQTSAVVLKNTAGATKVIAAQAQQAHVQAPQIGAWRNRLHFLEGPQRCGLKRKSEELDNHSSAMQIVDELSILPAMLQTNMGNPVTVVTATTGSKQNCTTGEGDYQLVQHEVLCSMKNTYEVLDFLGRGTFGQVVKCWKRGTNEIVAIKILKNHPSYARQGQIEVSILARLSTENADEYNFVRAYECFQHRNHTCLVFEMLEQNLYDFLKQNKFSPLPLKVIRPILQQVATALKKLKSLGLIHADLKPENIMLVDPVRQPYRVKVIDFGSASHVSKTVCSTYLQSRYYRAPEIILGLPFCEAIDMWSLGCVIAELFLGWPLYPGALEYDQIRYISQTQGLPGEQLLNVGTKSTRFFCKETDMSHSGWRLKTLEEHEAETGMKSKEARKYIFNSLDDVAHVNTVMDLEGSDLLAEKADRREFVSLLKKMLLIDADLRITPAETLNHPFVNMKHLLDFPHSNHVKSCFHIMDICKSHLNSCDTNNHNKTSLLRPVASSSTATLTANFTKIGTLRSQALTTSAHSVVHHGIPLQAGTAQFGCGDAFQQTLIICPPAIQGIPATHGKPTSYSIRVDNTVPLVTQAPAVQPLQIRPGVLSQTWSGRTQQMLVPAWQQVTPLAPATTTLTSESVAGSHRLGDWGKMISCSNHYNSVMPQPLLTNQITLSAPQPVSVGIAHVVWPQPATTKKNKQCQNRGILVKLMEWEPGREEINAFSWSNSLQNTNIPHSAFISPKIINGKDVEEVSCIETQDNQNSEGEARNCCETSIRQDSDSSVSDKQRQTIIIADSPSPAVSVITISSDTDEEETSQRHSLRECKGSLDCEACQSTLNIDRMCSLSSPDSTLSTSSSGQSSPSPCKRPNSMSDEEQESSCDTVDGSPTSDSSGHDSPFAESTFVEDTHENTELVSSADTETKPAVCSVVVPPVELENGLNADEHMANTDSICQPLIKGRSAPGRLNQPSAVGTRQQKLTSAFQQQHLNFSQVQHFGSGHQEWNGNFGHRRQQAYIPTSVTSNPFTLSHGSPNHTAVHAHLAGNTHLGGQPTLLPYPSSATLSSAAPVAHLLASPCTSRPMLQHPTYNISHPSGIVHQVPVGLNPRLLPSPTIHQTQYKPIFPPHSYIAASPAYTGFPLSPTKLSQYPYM

`COc1ccc2c(c1)c1c3c(c4c5ccccc5n(C)c4c1n2CC(O)CN(C)C)C(=O)NC3=O` (stereo not given) showed a residual activity (ROCK2 (rat); compound 0.1 µM) of 118%, a residual activity (ROCK2 (rat); compound 1.0 µM) of 115% and a residual activity (ROCK2 (rat); compound 10.0 µM) of 112%. It also gave a residual activity (HIPK3 (human); compound 0.1 µM) of 108%, a residual activity (HIPK3 (human); compound 1.0 µM) of 106% and a residual activity (HIPK3 (human); compound 10.0 µM) of 59%. For the same compound, the residual activity (MAPK14 (human); compound 0.1 µM) was 107%, the residual activity (MAPK14 (human); compound 1.0 µM) was 106% and the residual activity (MAPK14 (human); compound 10.0 µM) was 86%. For the same compound, the residual activity (PAK6 (human); compound 0.1 µM) was 107%, the residual activity (PAK6 (human); compound 1.0 µM) was 82% and the residual activity (PAK6 (human); compound 10.0 µM) was 71%. It also gave a residual activity (EEF2K (human); compound 0.1 µM) of 106%, a residual activity (EEF2K (human); compound 1.0 µM) of 106% and a residual activity (EEF2K (human); compound 10.0 µM) of 108%. For the same compound, the residual activity (DYRK1A (human); compound 0.1 µM) was 96%, the residual activity (DYRK1A (human); compound 1.0 µM) was 68% and the residual activity (DYRK1A (human); compound 10.0 µM) was 41%. The residual activity (MAPKAPK5 (human); compound 0.1 µM) was 104%, the residual activity (MAPKAPK5 (human); compound 1.0 µM) was 103% and the residual activity (MAPKAPK5 (human); compound 10.0 µM) was 108%. The residual activity (DYRK3 (human); compound 0.1 µM) was 92%, the residual activity (DYRK3 (human); compound 1.0 µM) was 57% and the residual activity (DYRK3 (human); compound 10.0 µM) was 24%. It also gave a residual activity (RPS6KA5 KD1 KD2 (human); compound 0.1 µM) of 11%, a residual activity (RPS6KA5 KD1 KD2 (human); compound 1.0 µM) of 3% and a residual activity (RPS6KA5 KD1 KD2 (human); compound 10.0 µM) of 3%. The residual activity (MARK3 (human); compound 0.1 µM) was 93%, the residual activity (MARK3 (human); compound 1.0 µM) was 68% and the residual activity (MARK3 (human); compound 10.0 µM) was 33%. For the same compound, the residual activity (MAPK13 (human); compound 0.1 µM) was 89%, the residual activity (MAPK13 (human); compound 1.0 µM) was 65% and the residual activity (MAPK13 (human); compound 10.0 µM) was 37%. The residual activity (DYRK2 (human); compound 0.1 µM) was 98%, the residual activity (DYRK2 (human); compound 1.0 µM) was 65% and the residual activity (DYRK2 (human); compound 10.0 µM) was 70%. For the same compound, the residual activity (NEK6 (human); compound 0.1 µM) was 99%, the residual activity (NEK6 (human); compound 1.0 µM) was 87% and the residual activity (NEK6 (human); compound 10.0 µM) was 84%. For the same compound, the residual activity (LCK (mouse); compound 0.1 µM) was 103%, the residual activity (LCK (mouse); compound 1.0 µM) was 75% and the residual activity (LCK (mouse); compound 10.0 µM) was 41%. For the same compound, the residual activity (HIPK2 (human); compound 0.1 µM) was 97%, the residual activity (HIPK2 (human); compound 1.0 µM) was 55% and the residual activity (HIPK2 (human); compound 10.0 µM) was 24%. For the same compound, the residual activity ([1]; compound 0.1 µM) was 70%, the residual activity ([1]; compound 1.0 µM) was 34% and the residual activity ([1]; compound 10.0 µM) was 8%. It also gave a residual activity (PAK4 (human); compound 0.1 µM) of 99%, a residual activity (PAK4 (human); compound 1.0 µM) of 82% and a residual activity (PAK4 (human); compound 10.0 µM) of 66%. It also gave a residual activity (CSNK2A1 (human); compound 0.1 µM) of 105%, a residual activity (CSNK2A1 (human); compound 1.0 µM) of 83% and a residual activity (CSNK2A1 (human); compound 10.0 µM) of 71%. The residual activity (PRKCZ (human); compound 0.1 µM) was 118%, the residual activity (PRKCZ (human); compound 1.0 µM) was 74% and the residual activity (PRKCZ (human); compound 10.0 µM) was 62%. For the same compound, the residual activity (PAK7 (human); compound 0.1 µM) was 108%, the residual activity (PAK7 (human); compound 1.0 µM) was 81% and the residual activity (PAK7 (human); compound 10.0 µM) was 85%. For the same compound, the residual activity (MAPK11 (human); compound 0.1 µM) was 119%, the residual activity (MAPK11 (human); compound 1.0 µM) was 102% and the residual activity (MAPK11 (human); compound 10.0 µM) was 95%. It also gave a residual activity (CaMK1 (human); compound 0.1 µM) of 79%, a residual activity (CaMK1 (human); compound 1.0 µM) of 55% and a residual activity (CaMK1 (human); compound 10.0 µM) of 16%.
`Cn1nc(Nc2ccc(F)cc2)c2c(N)ncnc21` showed a residual activity (ROCK2 (rat); compound 1.0 µM) of 117%, a residual activity (ROCK2 (rat); compound 10.0 µM) of 113% and a residual activity (HIPK3 (human); compound 1.0 µM) of 143%. For the same compound, the residual activity (HIPK3 (human); compound 10.0 µM) was 136%, the residual activity (MAPK14 (human); compound 1.0 µM) was 93% and the residual activity (MAPK14 (human); compound 10.0 µM) was 80%. The residual activity (PAK6 (human); compound 1.0 µM) was 113%, the residual activity (PAK6 (human); compound 10.0 µM) was 101% and the residual activity (EEF2K (human); compound 1.0 µM) was 102%. For the same compound, the residual activity (EEF2K (human); compound 10.0 µM) was 103%, the residual activity (DYRK1A (human); compound 1.0 µM) was 105% and the residual activity (DYRK1A (human); compound 10.0 µM) was 101%. For the same compound, the residual activity (MAPKAPK5 (human); compound 1.0 µM) was 107%, the residual activity (MAPKAPK5 (human); compound 10.0 µM) was 109% and the residual activity (DYRK3 (human); compound 1.0 µM) was 119%. It also gave a residual activity (DYRK3 (human); compound 10.0 µM) of 101%, a residual activity (RPS6KA5 KD1 KD2 (human); compound 1.0 µM) of 97% and a residual activity (RPS6KA5 KD1 KD2 (human); compound 10.0 µM) of 84%. For the same compound, the residual activity (MARK3 (human); compound 1.0 µM) was 82%, the residual activity (MARK3 (human); compound 10.0 µM) was 79% and the residual activity (MAPK13 (human); compound 1.0 µM) was 104%. It also gave a residual activity (MAPK13 (human); compound 10.0 µM) of 109%, a residual activity (DYRK2 (human); compound 1.0 µM) of 86% and a residual activity (DYRK2 (human); compound 10.0 µM) of 83%. The residual activity (NEK6 (human); compound 1.0 µM) was 95%, the residual activity (NEK6 (human); compound 10.0 µM) was 95% and the residual activity (LCK (mouse); compound 1.0 µM) was 112%. The residual activity (LCK (mouse); compound 10.0 µM) was 81%, the residual activity (HIPK2 (human); compound 1.0 µM) was 113% and the residual activity (HIPK2 (human); compound 10.0 µM) was 105%. The residual activity ([1]; compound 1.0 µM) was 124%, the residual activity ([1]; compound 10.0 µM) was 106% and the residual activity (PAK4 (human); compound 1.0 µM) was 86%. The residual activity (PAK4 (human); compound 10.0 µM) was 97%, the residual activity (CSNK2A1 (human); compound 1.0 µM) was 91% and the residual activity (CSNK2A1 (human); compound 10.0 µM) was 96%. The residual activity (PRKCZ (human); compound 1.0 µM) was 97%, the residual activity (PRKCZ (human); compound 10.0 µM) was 102% and the residual activity (PAK7 (human); compound 1.0 µM) was 109%. It also gave a residual activity (PAK7 (human); compound 10.0 µM) of 125%, a residual activity (MAPK11 (human); compound 1.0 µM) of 132% and a residual activity (MAPK11 (human); compound 10.0 µM) of 127%. The residual activity (CaMK1 (human); compound 1.0 µM) was 103% and the residual activity (CaMK1 (human); compound 10.0 µM) was 97%.
For `O=C1NC(=S)N[C@@H]1Cc1c[nH]c2ccccc12`, the residual activity (EPHB3 (human)) was 81%, the residual activity (ROCK2 (rat); compound 1.0 µM) was 83% and the residual activity (ROCK2 (rat); compound 10.0 µM) was 96%. The residual activity (MAPK14 (human); compound 1.0 µM) was 76%, the residual activity (MAPK14 (human); compound 10.0 µM) was 82% and the residual activity (PAK6 (human); compound 1.0 µM) was 87%. It also gave a residual activity (PAK6 (human); compound 10.0 µM) of 98%, a residual activity (EEF2K (human); compound 1.0 µM) of 75% and a residual activity (EEF2K (human); compound 10.0 µM) of 85%. For the same compound, the residual activity (MST4 (human); compound 1.0 µM) was 126%, the residual activity (MST4 (human); compound 10.0 µM) was 108% and the residual activity (DYRK1A (human); compound 1.0 µM) was 85%. It also gave a residual activity (DYRK1A (human); compound 10.0 µM) of 92%, a residual activity (MAPKAPK5 (human); compound 1.0 µM) of 89% and a residual activity (MAPKAPK5 (human); compound 10.0 µM) of 100%. It also gave a residual activity (DYRK3 (human); compound 1.0 µM) of 78%, a residual activity (DYRK3 (human); compound 10.0 µM) of 96% and a residual activity (RPS6KA5 KD1 KD2 (human); compound 1.0 µM) of 80%. It also gave a residual activity (RPS6KA5 KD1 KD2 (human); compound 10.0 µM) of 87%, a residual activity (BTK (human); compound 1.0 µM) of 84% and a residual activity (BTK (human); compound 10.0 µM) of 99%. The residual activity (MARK3 (human); compound 1.0 µM) was 92%, the residual activity (MARK3 (human); compound 10.0 µM) was 85% and the residual activity (MAPK13 (human); compound 1.0 µM) was 94%. The residual activity (MAPK13 (human); compound 10.0 µM) was 98%, the residual activity (DYRK2 (human); compound 1.0 µM) was 82% and the residual activity (DYRK2 (human); compound 10.0 µM) was 98%. It also gave a residual activity (NEK6 (human); compound 1.0 µM) of 83%, a residual activity (NEK6 (human); compound 10.0 µM) of 87% and a residual activity (LCK (mouse); compound 1.0 µM) of 74%. The residual activity (LCK (mouse); compound 10.0 µM) was 95%, the residual activity (HIPK2 (human); compound 10.0 µM) was 92% and the residual activity ([1]; compound 1.0 µM) was 87%. It also gave a residual activity ([1]; compound 10.0 µM) of 90%, a residual activity (PAK4 (human); compound 1.0 µM) of 103% and a residual activity (PAK4 (human); compound 10.0 µM) of 106%. For the same compound, the residual activity (CSNK2A1 (human); compound 1.0 µM) was 83%, the residual activity (CSNK2A1 (human); compound 10.0 µM) was 93% and the residual activity (IKBKE (human); compound 1.0 µM) was 84%. It also gave a residual activity (IKBKE (human); compound 10.0 µM) of 93%, a residual activity (PRKCZ (human); compound 1.0 µM) of 77% and a residual activity (PRKCZ (human); compound 10.0 µM) of 83%. For the same compound, the residual activity (PAK7 (human); compound 1.0 µM) was 97%, the residual activity (PAK7 (human); compound 10.0 µM) was 108% and the residual activity (MAPK11 (human); compound 1.0 µM) was 94%. It also gave a residual activity (MAPK11 (human); compound 10.0 µM) of 95%, a residual activity (EPHA2 (human); compound 1.0 µM) of 94% and a residual activity (EPHA2 (human); compound 10.0 µM) of 86%. The residual activity (CaMK1 (human); compound 1.0 µM) was 89% and the residual activity (CaMK1 (human); compound 10.0 µM) was 104%.
